Source: patent publication US9133235B2, “Macrocyclic antagonists of the motilin receptor for treatment of gastrointestinal dysmotility disorders” (Ocera Therapeutics, Inc., priority 2006, dated 2015)

How the values were obtained:
human motilin receptor [1] = target: T1, human motilin receptor (Homo sapiens, UniProt O43193); experiment: Aequorin functional assay (motilin receptor); format: cell-based; set-up: host or cells: CHO-K1 cells co-expressing Gα16 and mitochondrially targeted Aequorin; settings: for IC50: functional activity, antagonist testing vs motilin 0.5 nM (EC80)
Experimental: B. Aequorin Functional Assay (Motilin Receptor)
The evaluation of compounds of the invention for functional activity can be conducted according to literature methods or as described below. (Carreras, C. W.; Siani, M. A.; Santi, D. V.; Dillon, S. B. Anal. Biochem. 2002, 300, 146-151.)
• Membranes were prepared using AequoScreen™ (EUROSCREEN, Belgium) cell lines expressing the human motilin receptor (cell line ES-380-A; receptor accession #AF034632). This cell line is constructed by transfection of the human motilin receptor into CHO-K1 cells co-expressing Gα16 and the mitochondrially targeted Aequorin (Ref. #ES-WT-A5). • Motilin (Bachem, #H-4385) • Assay buffer: DMEM-F12 (Dulbeccoe's Modified Eagles Medium) with 15 mM HEPES and 0.1% BSA (pH 7.0) • Coelenterazine (Molecular Probes™, Leiden, The Netherlands) Final Test Concentrations (N=5) for Compounds: • 10, 3.16, 1.0, 0.316, 0.10 μM. Compound Handling:
Compounds were provided as dry films at a quantity of approximately 1.2 μmol in pre-formatted 96-well plates. Compounds were dissolved in 100% DMSO at a concentration of 10 mM and stored at −20° C. until further use. Daughter plates were prepared at a concentration of 500 μM in 30% DMSO with 0.1% BSA and stored at −20° C. until testing. On the test day, compounds were allowed to thaw at room temperature and than diluted in assay buffer according to the desired test concentrations. Under these conditions, the maximum final DMSO concentration in the assay was 0.6%.
Cells are collected from culture plates with Ca^2+ and Mg^2+-free phosphate buffered saline (PBS) supplemented with 5 mM EDTA, pelleted for 2 minutes at 1000×g, resuspended in assay buffer (see above) at a density of 5×10^6 cells/mL and incubated overnight in the presence of 5 μM coelenterazine. After loading, cells were diluted with assay buffer to a concentration of 5×10^5 cells/mL.
For agonist testing, 50 μL of the cell suspension was mixed with 50 μL of the appropriate concentration of test compound or motilin (reference agonist) in 96-well plates (duplicate samples). The emission of light resulting from receptor activation was recorded using the Functional Drug Screening System 6000 ‘FDSS 6000’ (Hamamatsu Photonics K. K., Japan).
For antagonist testing, an approximate EC80 concentration of motilin (i.e. 0.5 nM; 100 μL) was injected onto the cell suspension containing the test compounds (duplicate samples) 15-30 minutes after the end of agonist testing and the consequent emission of light resulting from receptor activation was measured as described in the paragraph above.
Results are expressed as Relative Light Units (RLU). Concentration response curves were analyzed using GraphPad™ Prism® (GraphPad Software, San Diego, Calif.) by non-linear regression analysis (sigmoidal dose-response) based on the equation E=Emax/(1+EC50/C)n where E is the measured RLU value at a given agonist concentration (C), Emax is the maximal response, EC50 is the concentration producing 50% stimulation and n is the slope index. For agonist testing, results for each concentration of test compound were expressed as percent activation relative to the signal induced by motilin at a concentration equal to the EC80 (i.e. 0.5 nM). For antagonist testing, results for each concentration of test compound were expressed as percent inhibition relative to the signal induced by motilin at a concentration equal to the EC80 (i.e. 0.5 nM).

human motilin receptor [2] = target: T1, human motilin receptor; experiment: Competitive radioligand binding assay (motilin receptor); set-up: purchased PerkinElmer (SignalScreen) 6110544; host or cells: CHO cells, stably transfected; membranes; settings: [125I]-motilin competition, membranes of CHO cells with human motilin receptor; read-out: Ki
Experimental: A. Competitive Radioligand Binding Assay (Motilin Receptor)
The competitive binding assay at the human motilin receptor was carried out analogously to assays described in the literature.
• Membranes were prepared from CHO cells stably transfected with the human motilin receptor and utilized at a quantity of 1.5 μg/assay point. [PerkinElmer™ SignalScreen Product #6110544] • [^125I]-Motilin (PerkinElmer, #NEX-378); final concentration: 0.04-0.06 nM • Motilin (Bachem™, #H-4385); final concentration: 1 μM • Multiscreen Harvest plates-GF/B (Millipore™, #MAHFB1H60) • Deep-well polypropylene titer plate (Beckman Coulter™, #267006) • TopSeal-A (PerkinElmer, #6005185) • Bottom seal (Millipore, #MATAH0P00) • MicroScint-0 (PerkinElmer, #6013611) • Binding Buffer: 50 mM Tris-HCl (pH 7.4), 10 mM MgCl2, 1 mM EDTA, 0.1% BSA Assay Volumes: • 150 μL of membranes diluted in binding buffer • 10 μL of compound diluted in binding buffer • 10 μL of radioligand ([^125I]-Motilin) diluted in binding buffer Final Test Concentrations (N=11) for Compounds: • 10, 5.0, 2.0, 1.0, 0.50, 0.20, 0.10, 0.050, 0.020, 0.010, 0.0050 μM. Compound Handling:
Compounds were provided frozen on dry ice at a stock concentration of 10 mM diluted in 100% DMSO and stored at −20° C. until the day of testing. On the test day, compounds were allowed to thaw at room temperature and than diluted in assay buffer according to the desired test concentrations. Under these conditions, the maximum final DMSO concentration in the assay was 0.5%.
In deep-well plates, diluted cell membranes (1.5 μg/mL) are combined with 10 μL of either binding buffer (total binding, N=5), 1 μM motilin (non-specific binding, N=3) or the appropriate concentration of test compound. The reaction is initiated by addition of 10 μL of [^125I]-motilin (final conc. 0.04-0.06 nM) to each well. Plates are sealed with TopSeal-A, vortexed gently and incubated at room temperature for 2 hours. The reaction is arrested by filtering samples through pre-soaked (0.3% polyethyleneimine, 2 h) Multiscreen Harvest plates using a Tomtec Harvester, washed 9 times with 500 μL of cold 50 mM Tris-HCl (pH 7.4), and than plates are air-dried in a fumehood for 30 minutes. A bottom seal is applied to the plates prior to the addition of 25 μL of MicroScint-0 to each well. Plates are than sealed with TopSeal-A and counted for 30 sec per well on a TopCount Microplate Scintillation and Luminescence Counter (PerkinElmer) where results are expressed as counts per minute (cpm).
Data are analyzed by GraphPad™ Prism® (GraphPad Software, San Diego, Calif.) using a variable slope non-linear regression analysis.
[formula] where total and non-specific binding represent the cpm obtained in the absence or presence of 1 μM motilin, respectively.

T1 sequence (O43193 whole entry): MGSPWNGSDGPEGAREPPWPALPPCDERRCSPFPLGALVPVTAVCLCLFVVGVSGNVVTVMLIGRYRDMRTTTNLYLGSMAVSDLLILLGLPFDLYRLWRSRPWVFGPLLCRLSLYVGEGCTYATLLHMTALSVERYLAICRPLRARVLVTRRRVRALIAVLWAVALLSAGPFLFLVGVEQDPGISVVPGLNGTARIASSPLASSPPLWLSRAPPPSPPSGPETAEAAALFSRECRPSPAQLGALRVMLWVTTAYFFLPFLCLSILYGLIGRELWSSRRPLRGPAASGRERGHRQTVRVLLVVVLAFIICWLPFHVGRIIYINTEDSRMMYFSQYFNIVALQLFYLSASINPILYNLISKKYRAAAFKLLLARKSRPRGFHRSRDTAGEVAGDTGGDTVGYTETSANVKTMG

Row | Structure (SMILES) | IC50 (human motilin receptor [1]) [nM] | Ki (human motilin receptor [2]) [nM] | approximate EC80 concentration (human motilin receptor [1]; reference agonist) [nM]
1 | CCC[C@@H]1NC(=O)[C@@H](C(C)C)NC(=O)[C@@H](Cc2cccs2)N[C@@H](C)COc2ccccc2CCCNC1=O [Compound 571] | ≤ 10 | ≤ 10 | 
2 | CNC[C@@H]1NC(=O)[C@@H](C(C)C)NC(=O)[C@@H](Cc2cccc(F)c2)N[C@@H](C)COc2ccccc2C[C@H](C)CNC1=O [Compound 546] | ≤ 1 | ≤ 10 | 
3 | CC(C)[C@H]1NC(=O)[C@@H](Cc2cccc(F)c2)N[C@@H](C)COc2ccccc2CCCNC(=O)[C@H](CN2CCOCC2)NC1=O [Compound 534] | ≤ 10 | ≤ 100 | 
4 | CC(C)[C@H]1NC(=O)[C@@H](Cc2cccc(C(F)(F)F)c2)NCCOc2ccccc2CCCNC(=O)[C@H](CN2CCCC2)NC1=O [Compound 532] | ≤ 100 | ≤ 10 | 
5 | CC(C)[C@H]1NC(=O)[C@@H](Cc2cccc(F)c2)N[C@@H](C)COc2ccccc2CCCNC(=O)[C@H](CNc2ncccn2)NC1=O [Compound 535] | ≤ 10 | ≤ 100 | 
6 | CC(C)[C@H]1NC(=O)[C@@H](Cc2cccc(Cl)c2)NCCOc2ccccc2C[C@@H](C)CNC(=O)[C@H](CC2CC2)NC1=O [Compound 586] | ≤ 100 | ≤ 100 | 
7 | COC[C@@H]1NC(=O)[C@@H](C(C)C)NC(=O)[C@@H](Cc2cccc(F)c2)N[C@@H](C)COc2ccccc2CCCNC1=O [Compound 569] | ≤ 10 | ≤ 10 | 
8 | CNC[C@@H]1NC(=O)[C@@H](C(C)C)NC(=O)[C@@H](Cc2cccc(C(F)(F)F)c2)NCCOc2ccccc2CCCNC1=O [Compound 547] | ≤ 10 | ≤ 10 | 
9 | CC(C)[C@H]1NC(=O)[C@@H](Cc2cccc(F)c2)N[C@@H](C)COc2ccccc2CCCNC(=O)[C@H](CN2CCCC2)NC1=O [Compound 533] | ≤ 10 | ≤ 100 | 
10 | CCC[C@@H]1NC(=O)[C@@H](C(C)C)NC(=O)[C@@H](Cc2cccc(F)c2)N[C@@H](C)COc2ccccc2C[C@H](C)CNC1=O [Compound 570] | ≤ 1 | ≤ 10 | 
11 | CC(C)[C@H]1NC(=O)[C@@H](Cc2cccc(Cl)c2)NCCOc2ccccc2C[C@H](C)CNC(=O)[C@H](CC2CC2)NC1=O [Compound 585] | ≤ 10 | ≤ 10 | 
12 | CC[C@H](C)[C@H](NC(=O)[C@@H]1CCCN1C(=O)[C@@H](NC(=O)[C@@H](N)Cc1ccccc1)C(C)C)C(=O)N[C@@H](Cc1ccccc1)C(=O)N[C@H](C(=O)N[C@@H](Cc1ccc(O)cc1)C(=O)NCC(=O)N[C@@H](CCC(=O)O)C(=O)N[C@@H](CC(C)C)C(=O)N[C@@H](CCC(N)=O)C(=O)N[C@@H](CCCNC(=N)N)C(=O)N[C@@H](CCSC)C(=O)N[C@@H](CCC(N)=O)C(=O)N[C@@H](CCC(=O)O)C(=O)N[C@@H](CCCCN)C(=O)N[C@@H](CCC(=O)O)C(=O)N[C@@H](CCCNC(=N)N)C(=O)N[C@@H](CC(N)=O)C(=O)N[C@@H](CCCCN)C(=O)NCC(=O)N[C@@H](CCC(N)=O)C(=O)O)[C@@H](C)O [motilin] |  |  | ~0.5
13 | CCC[C@@H]1NC(=O)[C@@H](C(C)C)NC(=O)[C@@H](Cc2cccc(F)c2)N[C@@H](C)COc2cccnc2CCCNC1=O [Compound 573] | ≤ 10 | ≤ 100 | 
14 | CC(C)[C@H]1NC(=O)[C@@H](Cc2cccc(F)c2)N[C@@H](C)COc2ccccc2CCCNC(=O)[C@H](Cn2cccc2)NC1=O [Compound 540] | ≤ 1 | ≤ 10 | 
15 | CC(C)[C@H]1NC(=O)[C@@H](Cc2cccc(C(F)(F)F)c2)NCCOc2ccccc2CCCNC(=O)[C@H](CN)NC1=O [Compound 542] | ≤ 10 | ≤ 100 | 
16 | CC(C)[C@H]1NC(=O)[C@@H](Cc2cccc(Cl)c2)N[C@@H](C)COc2ccccc2CCCNC(=O)[C@H](CNC(=N)N)NC1=O [Compound 516] | ≤ 100 |  | 
17 | CC(C)[C@H]1NC(=O)[C@@H](Cc2cccc(C(F)(F)F)c2)NCCOc2ccccc2CCCNC(=O)[C@H](Cn2cccc2)NC1=O [Compound 539] | ≤ 1 | ≤ 10 | 
18 | CC(C)[C@H]1NC(=O)[C@@H](Cc2cccc(C(F)(F)F)c2)NCCOc2ccccc2CCCNC(=O)[C@H](CN=[N+]=[N-])NC1=O [Compound 537] | ≤ 1 | ≤ 10 | 
19 | CC(C)[C@H]1NC(=O)[C@@H](Cc2cccc(F)c2)N[C@@H](C)COc2ccccc2CCCNC(=O)[C@H](CN(C)C)NC1=O [Compound 529] | ≤ 10 | ≤ 10 | 
20 | CC(C)[C@H]1NC(=O)[C@@H](Cc2cccc(F)c2)N[C@@H](C)COc2ccccc2C[C@H](C)CNC(=O)[C@H](CN=[N+]=[N-])NC1=O [Compound 545] | ≤ 1 | ≤ 10 | 
21 | CCC[C@@H]1NC(=O)[C@@H](C(C)C)NC(=O)[C@@H](Cc2cccc(F)c2)N[C@@H](C)COc2cnccc2CCCNC1=O [Compound 565] | ≤ 10 | ≤ 10 | 
22 | CC(C)[C@H]1NC(=O)[C@@H](Cc2cccc(F)c2)N[C@@H](C)COc2ccccc2CCCNC(=O)[C@H](CN=[N+]=[N-])NC1=O [Compound 538] | ≤ 1 | ≤ 10 | 
23 | CCC[C@@H]1NC(=O)[C@@H](C(C)C)NC(=O)[C@@H](Cc2cccc(F)c2)N[C@@H](C)COc2ncccc2CCCNC1=O [Compound 574] | ≤ 1000 | ≤ 100 | 
24 | CC(C)[C@H]1NC(=O)[C@@H](Cc2cccc(F)c2)N[C@@H](C)COc2ccccc2C[C@H](C)CNC(=O)[C@H](CNc2ncccn2)NC1=O [Compound 550] | ≤ 1 | ≤ 10 | 
25 | CC(C)[C@H]1NC(=O)[C@@H](Cc2cccc(C(F)(F)F)c2)NCCOc2ccccc2CCCNC(=O)[C@H](CNC(=N)N)NC1=O [Compound 503] | ≤ 100 |  | 
